From US20100291225A1, “Stabilized Sustained Release Composition of Bupropion Hydrochloride and Process For Preparing the Same” (priority 2008, published 2010) come the findings set out here.

For this data set the following is noted: in vivo, po, 150 mg. On the procedure:
This example describes an in-vivo study, which measured plasma concentrations of bupropion achieved after oral administration of reference Wellbutrin® SR tablet and test bupropion hydrochloride sustained release tablets of example 1. The in-vivo study was carried out on 12+2 standby healthy adult subjects under fasting conditions. Plasma bupropion was determined over a 120 hour period, after single oral administration of the respective formulations. Each subject was administered each of the two formulations in cross over design separated by a washout period of 14 days between administrations of the two formulations. Plasma levels were measured at predetermined times utilizing a validated assay method employing LC-MS/MS instrumentation. Plasma pharmacokinetic parameters were evaluated using commercially available software WinNonlin version 5.0.1 or higher. The statistical analysis was performed using SAS® package (SAS® Institute Inc., USA version 9.1 or higher). Values derived at each time point and to determine the area under the curve (AUC) and maximum concentration (Cmax) afforded by Wellbutrin®SR and the test formulation.

The Cmax is the peak of the concentration-time curve. Compound `CC(NC(C)(C)C)C(=O)c1cccc(Cl)c1` (stereo not drawn) [Wellbutrin ®SR] came in with an AUC0-t of 894.88 ngh/ml, an AUC0-α of 951.251 ngh/ml and a Cmax of 111.178 ng/mL.
